The text below walks through data of patent US20140275257A1, “N-ACETYL CYSTEINE COMPOSITIONS IN THE TREATMENT OF SYSTEMIC LUPUS ERYTHEMATOSUS” (Foundation for the State University of New York, priority 2013, published 2014).

For the test, the system named is SLE patients. Put plainly: ADHD Self-Report Scale (ASRS) in SLE patients treated with NAC. Format: in vivo, human. The protocol:
The clinical trial design, eligibility criteria, randomization, blinding, monitoring of safety, tolerance and efficacy on NAC in patients with SLE was as described in Example 1, approved by the Food and Drug Administration (IND No: 101,320; clinicaltrials.gov identifier: NCT00775476). As an addendum to the Example 1 study, ASRS was evaluated as an exploratory outcome in 24 SLE patients randomized to receive orally either placebo or NAC in one of two treatment arms: 1,200 mg or 2,400 mg twice daily for three months. 12 patients were enrolled per dosing group, 9 received NAC while 3 received placebo. Due to missing data, 6 patients enrolled in the placebo arm and 8 patients enrolled into each of the two NAC treatment arms could be evaluated.
The ASRS is an 18-item scale that is used to assess the current status of the 18 DSM-IV symptoms of ADHD in adults. (Kessler, R. C. et al., “The World Health Organization Adult ADHD Self-Report Scale (ASRS): a short screening scale for use in the general population,” Psychol. Med., 35(2): 245-256 (2005)). Symptoms are rated on a frequency basis: 0=never, 1=rarely, 2=sometimes, 3=often, and 4=very often. Nine items assess inattention and nine assess hyperactivity-impulsivity. The 9 inattentive symptoms are summed to create the ASRS A subscale; the 9 hyperactive-impulsive symptoms are summed to compute the ASRS B subscale. These two scales are summed to compute the total score. For all scales, higher scores indicate more symptoms. The scale has high concurrent validity with a rater-administered ADHD symptom scale. (Adler, L. A. et al., “Validity of Pilot Adult ADHD Self-Report Scale (ASRS) to Rate Adult ADHD Symptoms,” Ann Clin. Psychiatry 18(3): 145-148 (2006)). As described in Example 1, SLE disease activity was assessed by using the British Isles Lupus Assessment Group (BILAG) (Isenberg, D. A. et al., “BILAG 2004. Development and initial validation of an updated version of the British Isles Lupus Assessment Group's disease activity index for patients with systemic lupus erythematosus,” Rheumatology, 44(7): 902-906 (2005)) and Systemic Lupus Erythematosus Disease Activity Index (SLEDAI) (Hochberg, M. C., “Updating the American College of Rheumatology revised criteria for the classification of systemic lupus erythematosus,” Arth. Rheum., 40(9): 1725 (1997)). Fatigue was estimated using the Fatigue Assessment Scale (FAS) (Michielsen, H. J. et al., “Psychometric qualities of a brief self-rated fatigue measure: The Fatigue Assessment Scale,” J. Psychosom. Res., 54(4): 345-352 (2003)).
Overall clinical effectiveness of NAC relative to placebo was analyzed with multilevel modeling as implemented in the STATA routine XTMIXED (from StataCorp, College Station, Tex.), with the three nested levels being drug group, subject within drug group and study visit within subject. All models included fixed effects for drug group, study visit and the drug group by study visit interaction along with random intercepts at each design level. […] Two-tailed paired t-test was used to assess the effects of placebo and of each and all NAC doses on clinical indices recorded on visits 2-5 relative to visit 1; p<0.05 was considered significant. Patients and controls were compared with two-tailed unpaired t-test. Correlations and t-test were performed with Prism (GraphPad, San Diego, Calif.).

[1] abbreviates: NAC Dose 3, end of 3-month treatment.

In the case of `CC(=O)N[C@@H](CS)C(=O)O` [NAC, N-acetyl-L-cysteine], the “cognitive/inattentive ASRS A scores” value (NAC Dose 2 (2.4 g/day), z=−3.31, p=0.001) is reported as “reduced”; the “cognitive/inattentive ASRS A scores” value (NAC Dose 3 (4.8 g/day), z=−4.04, p<0.0001) was “reduced”; the “cognitive/inattentive ASRS A scores” value (NAC Doses 2 and 3 combined, z=−3.41, p=0.001) is “reduced”. In addition, the “hyperactivity/impulsive components of ASRS scores (ASRS B scores)” value (NAC Dose 2 and 3, alone or combined (data not shown)) is “not affected”. Further, the “ASRS Total scores” value by setting is: (NAC Dose 3 (4.8 g/day), after 2 and 3 months of treatment) “diminished”; (NAC Doses 2 and 3 combined, after 3 months) “reduced”. In addition, the “standardized mean difference effect size (Cohen's D), ASRS A scores” value under setting [1] worked out at 0.71. Moreover, the “standardized mean difference effect size (Cohen's D), ASRS B scores” value under setting [1] is on record as 0.44. Also, the “standardized mean difference effect size (Cohen's D), ASRS Total scores” value under setting [1] came out at 0.72. For the same molecule, the “reduction in ASRS Total scores relative to placebo (multilevel modeling)” value (NAC Doses 2 and 3 combined, XTMIXED z=−2.09, p=0.037) was “greater”.
